What was measured:
[1] = test system: Staphylococcus aureus 29213; assay: Bacterial resistance development, serial passaging; type: cell-based; settings: serial passage at sub-MIC for 15 days
Source text: Staphylococcus aureus 29213 was employed to assess the development of resistance by the serial passaging method, as previously described ([Lyu et al., 2017]). Minimum inhibitory concentration testing was first conducted for all of the compounds to be tested, as described above. S. aureus was harvested from 96-well plates of sub-MIC levels, diluted in MHB to a concentration of 2–7 × 10^5 CFU/mL, and then subjected to MIC determination for up to 15 days. The change in MIC values determines the development of antibiotic resistance in S. aureus.

[2] = test system: S. aureus 29213; assay: Cytoplasmic membrane depolarization, diSC3-5; type: cell-based, Staphylococcus aureus; settings: 0.4 μM diSC3-5, 100 mM KCl, ex 622 nm, em 670 nm
Experimental: The dye diSC3-5 was employed to assay cytoplasmic membrane depolarization activities ([Shao et al., 2018]). S. aureus 29213 was diluted to an OD600 = 0.05 after washing three times with buffer (5 mM HEPES, 5 mM glucose, pH 7.4) when the bacteria grew to mid-log phase. Then, diSC3-5 at a final concentration of 0.4 μM was added into the medium and incubated for 1–1.5 h. The final concentration of 100 mM KCl was then added to the solution for 15 min. The peptides were added to 12-well plates, which were filled with 2 mL of cell suspension. An F-4500 fluorescence spectrophotometer (Hitachi, Japan) was employed to measure the fluorescence value at an excitation wavelength of 622 nm and an emission wavelength of 670 nm. Maximal augmentation was monitored, and the fluorescence of the mixture of bacteria and dye served as the blank control.

[3] = test system: Staphylococcus aureus 29213; assay: Propidium iodide uptake assay; type: cell-based; settings: 0.5 × MIC, MIC and 2 × MIC; 10 μg/mL PI; ex 535 nm, em 617 nm
Experimental: Staphylococcus aureus 29213 was washed three times with buffer (5 mM HEPES, 5 mM glucose, pH 7.4) after the bacterium grew to the mid-log phase and then diluted to an OD600 = 0.05. Propidium iodide was then added to the final concentration of 10 μg/mL and incubated for 30 min at 4°C. The peptides were added to 12-well plates, which were filled with 2 mL of the cell suspension. An F-4500 fluorescence spectrophotometer (Hitachi, Japan) was employed to measure the fluorescence value at an excitation wavelength of 535 nm and an emission wavelength of 617 nm. Maximal augmentation was monitored, and the fluorescence of the mixture of bacteria and dye served as the blank control ([Morita et al., 2015]).

## penicillin [reference compound]
[1]
  change in MIC value, 15th day versus first day: 16 fold

## melittin [reference compound]
[2]
  cytoplasmic membrane depolarization (diSC3-5 fluorescence): rapid fluorescence intensity increase
[3]
  PI uptake (PI fluorescence): rapidly disrupted the bacterial membrane and caused PI uptake
